Data: patent EP0340778A2, “Prodrugs of 2',3'- Didehydro-2',3'-Dideoxynucleosides” (Bristol-Myers Squibb Company, priority 1988, dated 1989)

What follows are molecules tested on HIV (LAV strain) (assay: anti-HIV/LAV activity in cultures of CEM-F cells, p-24 gag protein enzyme capture assay (ELISA)). Conditions: Human immunodeficiency virus 1, CCRF-CEM, 192 h, read-out: ID₅₀.
Format: cell-based
Procedure: The anti-HIV/LAV activity of several compounds representative of this invention and of d4T for comparison was measured in cultures of CEM-F cells. The CEM cells were infected with approximately 30 TCID₅₀ (50% tissue culture infectious dose) of HIV (LAV strain). The cells were then incubated for 45 min 37°C. The test compounds, in culture medium, were added at various concentrations to the infected cells and then incubated for a further 8 days. After 8 days the antiviral activity was evaluated in the culture media supernatant for p-24 gag protein by an enzyme capture assay (ELISA). The antiviral activity was expressed as the dose which inhibits 50% of the virus expression (ID₅₀ in µM) as detected by the assay described.

Row | SMILES | IC50 [µM]
1 | COCC(=O)OCC1C=CC(n2cc(C)c(=O)[nH]c2=O)O1 (stereo not drawn) [Example 3, 5′-O-Methoxyacetyl-2′,3′-didehydro-2′,3′-dideoxythymidine] | 0.4
2 | COC(=O)OC[C@@H]1C=C[C@H](n2cc(C)c(=O)[nH]c2=O)O1 [Example 5, 5′-O-Methoxycarbonyl-2′,3′-didehydro-2′,3′-dideoxythymidine] | 3.2
3 | Cc1cn([C@H]2C=C[C@@H](COC(=O)C(C)(C)C)O2)c(=O)[nH]c1=O [Example 4, 5′-O-Pivaloyl-2′,3′-didehydro-2′,3′-dideoxythymidine] | 4.8
4 | Cc1cn([C@H]2C=C[C@@H](COC(=O)OC3CCCCC3)O2)c(=O)[nH]c1=O [Example 6, 5′-O-Cyclohexyloxycarbonyl-2′,3′-didehydro-2′,3′-dideoxy-thymidine] | 0.6
5 | CC(=O)OC[C@@H]1C=C[C@H](n2cc(C)c(=O)[nH]c2=O)O1 [Example 1, 5′-O-Acetyl-2′,3′-didehydro-2′,3′-dideoxythymidine] | 3.2
6 | Cc1cn([C@H]2C=C[C@@H](CO)O2)c(=O)[nH]c1=O [d4T, 2′,3′-didehydro-2′,3′-dideoxythymidine, reference compound] | 0.2
7 | Cc1cn(C2C=CC(COC(=O)c3ccccc3)O2)c(=O)[nH]c1=S (stereo not drawn) [Example 8, 5′-O-Benzoyl-2′,3′-dihydro-2′,3′-dideoxy-4-thio-thymidine] | 0.5

Same assay, conditions: Human immunodeficiency virus 1, CCRF-CEM, 192 h; dose which inhibits 50% of the virus expression; CEM cells infected with approximately 30 TCID₅₀ of HIV (LAV strain); 8 days incubation with compound; p-24 gag protein in culture media supernatant; read-out: ID₅₀

Row | SMILES | IC50 [µM]
8 | O=C(OC[C@@H]1C=C[C@H](n2ccc(=S)[nH]c2=O)O1)c1ccccc1 [Example 11, 5′-O-Benzoyl-2′,3′-didehydro-2′,3′-dideoxy-4-thio-uridine] | 0.5
9 | Nc1ccn([C@H]2C=C[C@@H](COC(=O)c3ccccc3)O2)c(=O)n1 [Example 12, 5′-O-Benzoyl-2′,3′-didehydro-2′,3′dideoxycytidine] | 0.1
